In patent US11370785B2, “Multicyclic compounds as farnesoid X receptor modulators” (BRISTOL-MYERS SQUIBB COMPANY, priority 2017, dated 2022):
pEC50: −log10 of the molar value.

target: T1, human FXR (Homo sapiens, UniProt Q96RI1); assay: transient human FXR/Gal4-luciferase reporter assay; type: cell-based; settings: Gal4-hFXR reporter in HEK293 cells; read-out: HLE GAL-FXR EC50
T1 construct: expressed in transfected cells; host or cells: HEK293 cells stably carrying a 5xGal4-response-element firefly luciferase reporter, transiently transfected with the pcDNA3.1-Gal4-FXR plasmid
T1 sequence (Q96RI1 262-486 limits assumed): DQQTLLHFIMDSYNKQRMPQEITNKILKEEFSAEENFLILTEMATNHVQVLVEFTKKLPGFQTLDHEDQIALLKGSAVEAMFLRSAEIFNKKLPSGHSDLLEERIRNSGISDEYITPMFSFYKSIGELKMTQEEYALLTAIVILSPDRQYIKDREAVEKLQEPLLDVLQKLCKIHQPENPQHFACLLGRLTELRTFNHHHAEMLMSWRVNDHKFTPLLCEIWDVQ
Outline: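 HEK293 cells stably carrying a 5×Gal4-response-element firefly luciferase reporter, transiently transfected with a CMV-driven Gal4 DNA-binding domain–human FXR ligand-binding domain fusion, were treated overnight at 37 °C with serially diluted compounds. Luminescence was read by Steady-Glo; DMSO background was subtracted and signal expressed as percent of the 8 μM GW-4064 response.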

Row | pEC50 | Compound
1 | 6.40 | O=C(O)c1cc(F)c2nc(N3CCC4(CC3)CC(=Cc3c(C5CC5)nnn3-c3c(Cl)cccc3Cl)C4)sc2c1 [Example 6, 2-(2-((4-Cyclopropyl-1-(2,6-dichlorophenyl)-1H-1,2,3-triazol-5-yl)methylene)-7-azaspiro[3.5]nonan-7-yl)-4-fluorobenzo[d]thiazole-6-carboxylic acid]
2 | 7.96 | O=C(NS(=O)(=O)C1CC1)c1cc(C(F)(F)F)c2cc(N3CCC4(CC3)CC(Cc3c(-c5ccccc5C(F)(F)F)noc3C3CC3)C4)ccc2n1 [Example 82, 6-(2-((5-Cyclopropyl-3-(2-(trifluoromethyl)phenyl)isoxazol-4-yl)methyl)-7-azaspiro[3.5]nonan-7-yl)-N-(cyclopropylsulfonyl)-4-(trifluoromethyl)quinoline-2-carboxamide]
3 | 6.49 | Cc1cccc(Cl)c1-c1noc(C2CC2)c1C=C1CC2(CCN(S(=O)(=O)c3ccc(C(=O)O)cc3)CC2)C1 [Example 10, 4-((2-((3-(2-Chloro-6-methylphenyl)-5-cyclopropylisoxazol-4-yl)methylene)-7-azaspiro[3.5]nonan-7-yl)sulfonyl)benzoic acid]

same assay, conditions: Gal4-hFXR reporter in HEK293 cells; relative to 8 μM GW-4064; read-out: FXR EC50

Row | pEC50 | Compound
4 | 7.64 | O=C(O)c1cc(OC2COC2)c2cc(N3CCC4(CC3)CC(Cc3c(-c5ccccc5C(F)(F)F)noc3C3CC3)C4)ccc2n1 [Example 138]
5 | 6.76 | O=C(O)c1ccc2cc(N3CCC4(CC3)CC(=Cc3c(-c5ccccc5C(F)(F)F)noc3C3CC3)C4)ccc2n1 [Example 29]
6 | 8.52 | O=C(O)c1cc(OC(F)F)c2cc(N3CCC4(CC3)CC(=Cc3c(-c5c(Cl)cncc5Cl)noc3C3CC3)C4)ccc2n1 [Example 81]
7 | 7.44 | O=C(O[C@@H]1O[C@H](C(=O)O)[C@@H](O)[C@H](O)[C@H]1O)c1cc(C(F)(F)F)c2cc(N3CCC4(CC3)CC(Cc3c(-c5ccccc5C(F)(F)F)noc3C3CC3)C4)ccc2n1 [Example 145, (2S,3S,4S,5R,6S)-6-((6-(2-((5-Cyclopropyl-3-(2-(trifluoromethyl)phenyl)isoxazol-4-yl)methyl)-7-azaspiro[3.5]nonan-7-yl)-4-(trifluoromethyl)quinoline-2-carbonyl)oxy)-3,4,5-trihydroxytetrahydro-2H-pyran-2-carboxylic acid]
8 | 5.36 | O=C(O)c1ccc(CN2CCC3(CC2)CC(=Cc2c(-c4c(Cl)cccc4Cl)noc2C2CC2)C3)cc1 [Example 52]
9 | 7.14 | O=C(O)c1cc(F)c2nc(N3CCC4(CC(=Cc5c(-c6c(Cl)cccc6Cl)noc5C5CC5)C4)C3)sc2c1 (stereo not drawn) [Example 131]
10 | 7.74 | CCOc1cc(C(=O)O)nc2ccc(N3CCC4(CC3)CC(=Cc3c(-c5ccccc5C(F)(F)F)noc3C3CC3)C4)cc12 [Example 100]
11 | 6.17 | CN(C)C(=O)c1cc(F)c2nc(N3CCC4(CC3)CC(=Cc3c(-c5c(Cl)cncc5Cl)noc3C(F)(F)F)C4)sc2c1 [Example 192]
12 | 6.47 | COc1ccc(C(=O)O)c2ccc(N3CCC4(CC3)CC(=Cc3c(-c5c(Cl)cncc5Cl)noc3C3CC3)C4)nc12 [Example 119]
13 | 6.49 | O=C(O)c1cc(CO)c2cc(N3CCC4(CC3)CC(Cc3c(-c5ccccc5C(F)(F)F)noc3C3CC3)C4)ccc2n1 [Example 154]
14 | 5.85 | O=C(O)c1cc(C(F)(F)F)c2cc(N3CCC4(CC3)CC(=Cc3c(C(C5CC5)C5CC5)noc3C3CC3)C4)ccc2n1 [Example 106]
15 | 7.29 | CCN(CC)C(=O)c1cc(OC2CCC2)c2cc(N3CCC4(CC3)CC(Cc3c(-c5ccccc5C(F)(F)F)noc3C3CC3)C4)ccc2n1 [Example 183]
16 | 6.13 | O=C(O)c1ccc2nc(N3CCC4(CC3)CC(Cc3c(-c5ccccc5C(F)(F)F)noc3C3CC3)C4)sc2n1 [Example 114]
17 | 7.47 | O=C(O)c1cc(OCC2CC2)c2cc(N3CCC4(CC3)CC(=Cc3c(-c5ccccc5OC(F)(F)F)noc3C3CC3)C4)ccc2n1 [Example 87]
18 | 7.36 | O=C(c1cc(OC2CCC2)c2cc(N3CCC4(CC3)CC(Cc3c(-c5ccccc5C(F)(F)F)noc3C3CC3)C4)ccc2n1)N1CCOCC1 [Example 181]
19 | 5.33 | O=C(O)c1ccc(N2CCC3(CC2)CC(=Cc2c(-c4c(Cl)cccc4Cl)cnn2C2CC2)C3)nc1 [Example 23]
20 | 6.45 | O=C(O)c1cc(F)c2nc(N3CCC4(CC3)CC(=Cc3c(-c5ccccc5OC(F)(F)F)noc3C3CC3)C4)sc2c1 [Example 26]
21 | 6.80 | COc1cc2nc(N3CCC4(CC3)CC(=Cc3c(-c5c(Cl)cncc5Cl)noc3C3CC3)C4)sc2cc1C(=O)O [Example 102]
22 | 6.92 | COCc1onc(-c2c(Cl)cncc2Cl)c1C=C1CC2(CCN(c3nc4c(F)cc(C(=O)O)cc4s3)CC2)C1 [Example 155]
23 | 6.33 | O=C(O)c1cc(OCCO)c2cc(N3CCC4(CC3)CC(Cc3c(-c5ccccc5C(F)(F)F)noc3C3CC3)C4)ccc2n1 [Example 94]
24 | 6.70 | O=C(O)c1cc(F)c2nc(N3CCC4(CC3)CC(=Cc3c(-c5ccncc5C(F)(F)F)noc3C3CC3)C4)sc2c1 [Example 127]
25 | 5.59 | N#Cc1cccc(N2CCC3(CC2)CC(=Cc2c(-c4c(Cl)cccc4Cl)noc2C2CC2)C3)c1 [Example 49]
26 | 7.96 | O=C(O)c1cc(OC2CCC2)c2cc(N3CCC4(CC3)CC(=Cc3c(-c5c(Cl)cncc5Cl)noc3C(F)(F)F)C4)ccc2n1 [Example 164]
27 | 7.43 | CCN(C)C(=O)c1cc(OC2CCC2)c2cc(N3CCC4(CC3)CC(Cc3c(-c5ccccc5C(F)(F)F)noc3C3CC3)C4)ccc2n1 [Example 184]

Row | pEC50 | Compound
28 | 7.28 | Cc1cc(C(=O)O)cc2sc(N3CCC4(CC3)CC(=Cc3c(-c5c(Cl)cncc5Cl)noc3C3CC3)C4)nc12 [Example 89]
29 | 7.48 | COCc1onc(-c2c(Cl)cncc2Cl)c1C=C1CC2(CCN(c3ccc4nc(C(=O)O)cc(C(F)(F)F)c4c3)CC2)C1 [Example 158]
30 | 6.70 | O=C(O)c1cc(OCCO)c2cc(N3CCC4(CC3)CC(=Cc3c(-c5c(Cl)cncc5Cl)noc3C3CC3)C4)ccc2n1 [Example 95]
31 | 6.49 | CCOc1cc(C(N)=O)ncc1N1CCC2(CC1)CC(Cc1c(-c3ccccc3C(F)(F)F)noc1C1CC1)C2 [Example 144]
32 | 7.43 | COCCOc1cc(C(=O)O)nc2ccc(N3CCC4(CC3)CC(=Cc3c(-c5c(Cl)cncc5Cl)noc3C(F)(F)F)C4)cc12 [Example 162]
33 | 7.29 | O=C(O)c1ccc2cc(N3CCC4(CC3)CC(Cc3c(-c5c(Cl)cccc5Cl)noc3C3CC3)C4)ccc2n1 [Example 40]
34 | 6.51 | CN(C)C(=O)c1cc(C(F)(F)F)c2cc(N3CCC4(CC3)CC(=Cc3c(-c5ccccc5C(F)(F)F)noc3C(F)(F)F)C4)ccc2n1 [Example 191]
35 | 5.91 | O=C(O)c1ccc(N2CCC3(CC2)CC(Nc2c(-c4c(Cl)cccc4Cl)noc2C2CC2)C3)nc1 [Example 13]
36 | 7.52 | CCc1cncc(Cl)c1-c1noc(C2CC2)c1C=C1CC2(CCN(c3ccc4nc(C(=O)O)cc(C(F)(F)F)c4c3)CC2)C1 [Example 166]
37 | 8.30 | CC(C)Oc1cc(C(=O)O)nc2ccc(N3CCC4(CC3)CC(=Cc3c(-c5ccccc5C(F)(F)F)noc3C3CC3)C4)cc12 [Example 83]
38 | 5.86 | O=C(NC1CC1)c1cc(OC2CCC2)c2cc(N3CCC4(CC3)CC(Cc3c(-c5ccccc5C(F)(F)F)noc3C3CC3)C4)ccc2n1 [Example 173]
39 | 6.16 | O=C(O)c1ccc(N2CCC3(CC2)CC(=Cc2c(-c4c(Cl)cccc4Cl)noc2C2CC2)C3)cc1 [Example 66]
40 | 6.94 | Cc1nc(C(=O)O)c2ccc(N3CCC4(CC3)CC(=Cc3c(-c5ccccc5C(F)(F)F)noc3C3CC3)C4)cn12 [Example 74]
41 | 6.02 | O=C(O)c1cc2ccc(N3CCC4(CC3)CC(Cc3c(-c5ccccc5C(F)(F)F)noc3C3CC3)C4)cc2cn1 [Example 35]
42 | 6.34 | O=C(O)COc1ccc(N2CCC3(CC2)CC(=Cc2c(-c4c(Cl)cccc4Cl)noc2C2CC2)C3)cc1 [Example 61]
43 | 6.68 | O=C(O)C1(c2ccc(N3CCC4(CC3)CC(=Cc3c(-c5c(Cl)cccc5Cl)noc3C3CC3)C4)cc2)CCC1 [Example 42]
44 | 6.43 | O=C(O)c1cccc(N2CCC3(CC2)CC(=Cc2c(-c4c(Cl)cccc4Cl)noc2C2CC2)C3)c1 [Example 64]
45 | 6.64 | COc1cc2nc(N3CCC4(CC3)CC(Cc3c(-c5ccccc5C(F)(F)F)noc3C3CC3)C4)sc2cc1C(=O)O [Example 105]
46 | 6.30 | O=C(O)c1ccc2cc(N3CCC4(CC3)CC(=Cc3c(-c5ccccc5C(F)(F)F)noc3C(F)(F)F)C4)ccc2n1 [Example 193]
47 | 5.99 | O=C(O)C1CCc2cc(N3CCC4(CC3)CC(=Cc3c(-c5ccccc5OC(F)(F)F)noc3C3CC3)C4)ccc2N1 (stereo not drawn) [Example 112]
48 | 6.49 | O=C(O)Cc1ccc(N2CCC3(CC2)CC(=Cc2c(-c4c(Cl)cccc4Cl)noc2C2CC2)C3)cc1 [Example 45]
49 | 6.62 | COc1ccc(C(=O)O)c2ccc(N3CCC4(CC3)CC(=Cc3c(-c5ccccc5C(F)(F)F)noc3C3CC3)C4)nc12 [Example 117]
50 | 6.46 | C=Cc1cncc(Cl)c1-c1noc(C2CC2)c1C=C1CC2(CCN(c3nc4c(F)cc(C(=O)O)cc4s3)CC2)C1 [Example 159]

Row | Compound | pEC50
51 | CN(C)C(=O)c1cc(OC2CCC2)c2cc(N3CCC4(CC3)CC(Cc3c(-c5ccccc5C(F)(F)F)noc3C3CC3)C4)ccc2n1 [Example 172, 4-Cyclobutoxy-6-(2-((5-cyclopropyl-3-(2-(trifluoromethyl)phenyl)isoxazol-4-yl)methyl)-7-azaspiro[3.5]nonan-7-yl)-N,N-dimethylquinoline-2-carboxamide] | 7.16
